{"source": "patent US12728134B2", "about": "“Liquisolid pharmaceutical formulation and process for manufacturing” (RHEINISCHE FRIEDRICH-WILHELMS-UNIVERSITÄT BONN, priority 2020, dated 2026)", "key": {"physchem": {"test": "physchem", "settings": "organic solvent or mixture, thermodynamic from solid", "method": "Therefore, 1 mg of each compound was weighted in an Eppendorf tube and 1 ml of solvent was added. The mixture was mixed with a metal spatula for 10 min each. […] About 20 mg of each compound were used and under stirring with a metal spatula the solvent was added in 10 μl steps."}, "[1]": {"test": "Solubility of poorly water-soluble APIs in propylene carbonate", "assay_type": "physicochemical", "settings": "organic solvent or mixture, thermodynamic from solid, solvent added in 10 μl steps to about 20 mg, mean of three samples", "protocol": "For a preliminary analysis, 1-2 mg of each compound was weighted in an Eppendorf tube and 1 ml propylene carbonate was added. The mixture was mixed with a metal spatula for 10 min each. The solubility of compounds, which were fully dissolved in the preliminary tests where than further analyzed. About 20 mg of each compound were used and under stirring with a metal spatula propylene carbonate was added in 10 μl steps."}, "[2]": {"test": "Biphasic dissolution test (BiPHa+)", "assay_type": "in vitro ADME", "text": "This approach was chosen to simulate the gastrointestinal properties to obtain in vivo predictive results.\nThe transition to the organic phase can be understood as absorption of active substances into the blood.\nTo simulate the gastrointestinal properties to obtain in vivo predictive results, the pH-profile, bile salt concentration and gastrointestinal passage time were adjusted in the aqueous phase to mimic human gut conditions. An organic phase of 1-decanol above the aqueous phase imitated the fraction absorbed from the gut. As a test model, the profile of a person without prior food intake was chosen. Therefore, FaSSIF-V2 medium, which represents the bile salts concentration of a fasted human was used. […] To generate an in-situ biorelevant aqueous medium for the fasted state, biorelevant surfactants, namely sodium-taurocholate (3 mM) and lecithin (0.2 mM), were added.\nPrior to the start of the experiments, both phases, 1-decanol and the acidic aqueous phase, were saturated with each other. First, the respective formulation was added (Table 2) to 50 mL HCl (0.1 M), simulating the stomach. During the first 30 min the formulation disintegrated/dispersed in 50 ml of 0.1 M HCl. After 30 min FaSSIF-V2 concentrate (sodium-taurocholate and lecithin) was added simultaneously to the addition of citrate-phosphate buffer (tri-potassium phosphate and potassium citrate) resulting in a first pH-shift from pH 1 to pH 5.5, simulating the duodenum. Thereafter, 50 mL 1-decanol was added. […] The adjusted buffers were titrated by 0.1 M NaOH and 0.1 M HCl (pH 5.5-6.8). The whole dissolution took 4.5 hours.\nFor each compound, the biphasic dissolution test was performed in triplicate. In order to evaluate the liquisolid formulations in terms of their performance, each liquisolid formulation was compared to a respective commercially available formulation.\nThe market formulations (Originator) of the selected APIs were tested additionally to compare the performance against established marked products."}}, "note": "Structures can show the parent of a compound that is named as a salt."}
{"smiles": "Cc1ccc(-c2cc(C(F)(F)F)nn2-c2ccc(S(N)(=O)=O)cc2)cc1", "note": "[Celecoxib]", "values": [{"measurement": "solubility at 10 min", "setting": "physchem; glycerol", "result": "< 1", "unit": "mg/mL"}, {"measurement": "solubility", "setting": "physchem; polyethylene glycol 400 (PEG 400)", "result": 230, "unit": "mg/mL"}, {"measurement": "solubility", "setting": "physchem; propylene glycol (PG)", "result": 60.3, "unit": "mg/mL"}, {"measurement": "solubility", "setting": "physchem; tetraglycole (TEG)", "result": 244, "unit": "mg/mL"}, {"measurement": "solubility", "setting": "[1]", "result": 267, "unit": "mg/mL"}, {"measurement": "Maximum Partitioned Drug in the Organic Phase", "setting": "[2]; Market Formulation (Originator, Table 11)", "result": 41, "unit": "%"}, {"measurement": "Maximum Partitioned Drug in the Organic Phase", "setting": "[2]; PC Silsol ® Formulation (propylene carbonate on mesoporous silica)", "result": 54, "unit": "%"}, {"measurement": "Maximum Partitioned Drug in the Organic Phase", "setting": "[2]; PEG 400 Silsol ® Formulation", "result": 46, "unit": "%"}, {"measurement": "Maximum Partitioned Drug in the Organic Phase", "setting": "[2]; TEG Silsol ® Formulation", "result": 53, "unit": "%"}, {"measurement": "result of propylene carbonate formulation compared to commercially available market formulation", "setting": "[2]; same in vitro biphasic dissolution conditions, in words", "result": "even better results"}]}
{"smiles": "COCCOC(=O)C1=C(C)NC(C)=C(C(=O)OC(C)C)C1c1cccc([N+](=O)[O-])c1", "note": "(stereo not drawn) [Nimodipine]", "values": [{"measurement": "solubility at 10 min", "setting": "physchem", "result": "< 1", "unit": "mg/mL"}, {"measurement": "solubility", "setting": "[1]", "result": 144, "unit": "mg/mL"}]}
{"smiles": "CN1CCN(C2=Nc3cc(Cl)ccc3Nc3ccccc32)CC1", "note": "[Clozapine]", "values": [{"measurement": "solubility", "setting": "[1]", "result": 4.79, "unit": "mg/mL"}]}
{"smiles": "COC1=CC(=O)C[C@@H](C)[C@]12Oc1c(Cl)c(OC)cc(OC)c1C2=O", "note": "[Griseofulvin]", "values": [{"measurement": "solubility", "setting": "[1]", "result": 16.8, "unit": "mg/mL"}]}
{"smiles": "CN(C)CCCN1c2ccccc2CCc2ccccc21", "note": "[Imipramine hydrochloride]", "values": [{"measurement": "solubility", "setting": "[1]", "result": 167, "unit": "mg/mL"}]}
{"smiles": "Cc1ccc(S(=O)(=O)NC(=O)NN2CC3CCCC3C2)cc1", "note": "(stereo not drawn) [Gliclazide]", "values": [{"measurement": "solubility", "setting": "[1]", "result": 32.3, "unit": "mg/mL"}]}
{"smiles": "CC(=O)Oc1ccc(C(c2ccc(OC(C)=O)cc2)c2ccccn2)cc1", "note": "[Bisacodyl]", "values": [{"measurement": "solubility", "setting": "[1]", "result": 91.5, "unit": "mg/mL"}]}
{"smiles": "COc1ccc2c(c1)c(CC(=O)O)c(C)n2C(=O)c1ccc(Cl)cc1", "note": "[Indomethacin]", "values": [{"measurement": "solubility", "setting": "[1]", "result": 17.2, "unit": "mg/mL"}]}
